Measurements published in patent US7629368B2, “Nitroderivatives as drugs for diseases having an inflammatory basis” (Nicox S.A., priority 2000, dated 2009).

Experiments:
[1] = system: Human adenocarcinoma (HT29) cells; test: Antiproliferative activity in cancerous cells, cellular growth by haemocytometer; format: cell-based; settings: 96 hours, controls = 100, read-out: Proliferation %
Protocol: Determination of the Antiproliferative Activity of the Compounds of the Invention in Cancerous Cells.
Human adenocarcinoma (HT29) cells taken from colon affected by cancerous process were transferred into plates with 24 wells containing a cellular culture medium formed by 10% of foetal bovine serum, penicillin (50 U/ml), streptomycin ([…]) and PEG 400 (polyethylenglycol). After 24 hours a part of the plates is inoculated with the tested compounds dissolved in the carrier (PEG 400). 96 hours after the inoculation of the compounds the cellular growth was measured by haemocytometer. The results, reported in Table 2, are expressed as percentage of the cellular proliferation with respect to the controls.

[2] = system: 647V human epithelial cells of bladder cancer; test: Antiproliferative activity, MTT, bladder cancer line 647V; format: cell-based; settings: 96 h, 4 days, vs DMSO 1%, read-out: Inhibition of the proliferative activity (%); for inhibition at 100 µM: 10^-4 M; for inhibition at 10 µM: 10^-5 M; for inhibition at 1 µM: 10^-6 M
Protocol: (§1) Determination of the Antiproliferative Activity of the Compounds of the Invention in Cancerous Epithelial Cells of Bladder and Prostate.
(§2) The experiment was carried out by using three human epithelial cellular lines of the prostate cancer (PNT1A; LLNCaP; PC3) and three human epithelial cellular lines of the bladder cancer (T24; 647V; 1207), the various types of cellular lines are identified on the basis of the characteristics, in particular of the aggressiveness, of the cancerous process.
(§3) The cancerous cells are sown, with an initial concentration of 20,000 cells/cm^2, in plates having 96 wells with a cellular culture medium RPMI added with foetal bovine serum 5% and L-Glutamine 1%. Solutions in dimethylsulphoxide of the tested compounds at three different concentrations (10^−6 M; 10^−5M; 10^−4M) or the carrier (DMSO 1%) are added to the culture medium. 4 days after the treatment the cellular growth was measured by the method with MTT (3-[4,5-dimethylthiazol-2-yl]-2,5-diphenyltetrazolium bromide) de-scribed by Turner in: Turner T., Chen P., Goodly L. J., Wells A. Clin. Exp. Metastasis 1996, 14, 409-418. The results, reported in Table 3, are expressed as inhibition percentage of the cellular proliferation determined by measuring the cellular proliferation in the cellular cultures treated with the tested compounds with respect to that measured in cellular cultures treated with dimethylsulphoxide 1%.

[3] = system: PNT1A human epithelial cells of prostate cancer; test: Antiproliferative activity, MTT, prostate cancer line PNT1A; format: cell-based; settings: 96 h, 4 days, vs DMSO 1%, read-out: Inhibition of the proliferative activity (%); for inhibition at 100 µM: 10^-4 M; for inhibition at 10 µM: 10^-5 M; for inhibition at 1 µM: 10^-6 M
Protocol: as §1, §2, §3

[4] = system: human epithelial cellular lines of the prostate cancer and of the bladder cancer; test: Antiproliferative activity in prostate and bladder cancer lines, summary in words; format: cell-based
Protocol: as §2, §3
The compound of Ex. 7, reported in the Table with the simplified denomination of nitrooxybutyl ester of the aspirin der. with ferulic ac. is active, at 10^−5 concentrations, in prostate tumours as shown by the results obtained on the cellular lines LNCaP and PC3.

[5] = system: T24 human epithelial cells of bladder cancer; test: Antiproliferative activity, MTT, bladder cancer line T24; format: cell-based; settings: Epithelial cell, 96 h, 4 days, vs DMSO 1%, read-out: Inhibition of the proliferative activity (%); for inhibition at 100 µM: 10^-4 M; for inhibition at 10 µM: 10^-5 M; for inhibition at 1 µM: 10^-6 M
Protocol: as §1, §2, §3

[6] = system: PC3 human epithelial cells of prostate cancer; test: Antiproliferative activity, MTT, prostate cancer line PC3; format: cell-based; settings: Epithelial cell, 96 h, 4 days, vs DMSO 1%, read-out: Inhibition of the proliferative activity (%); for inhibition at 100 µM: 10^-4 M; for inhibition at 10 µM: 10^-5 M; for inhibition at 1 µM: 10^-6 M
Protocol: as §1, §2, §3

[7] = system: 1207 human epithelial cells of bladder cancer; test: Antiproliferative activity, MTT, bladder cancer line 1207; format: cell-based; settings: Epithelial cell, 96 h, 4 days, vs DMSO 1%, read-out: Inhibition of the proliferative activity (%); for inhibition at 100 µM: 10^-4 M; for inhibition at 10 µM: 10^-5 M; for inhibition at 1 µM: 10^-6 M
Protocol: as §1, §2, §3

[8] = system: LNCaP human epithelial cells of prostate cancer; test: Antiproliferative activity, MTT, prostate cancer line LNCaP; format: cell-based; settings: 96 h, 4 days, vs DMSO 1%, read-out: Inhibition of the proliferative activity (%); for inhibition at 100 µM: 10^-4 M; for inhibition at 10 µM: 10^-5 M; for inhibition at 1 µM: 10^-6 M
Protocol: as §1, §2, §3

[9] = system: liver injury induced by concanavalin A; test: Protection from liver injury induced by concanavalin A; format: in vivo; settings: ip; plasmatic glutamic-pyruvic transaminase vs treated control group (=100); 200 mg/kg intraperitoneal; 8 hours after concanavalin A 0.3 mg/rat i.v.
Excerpt: Determination of the capability of the compounds of the invention to protect the animals from the liver injury induced by concanavalin A.
The model in vivo used in the present example has been described in Tiegs G, Hentshel J, A Wendel. A T cell-dependent experimental liver injury in mice induced by Concanavalin A. J. Clin. Invest. 1992; 90:196-203.
The animals ([…] of Swiss stock weighing about 20 g) are divided in groups of at least No. 10 animals for group.
The animals receive concanavalin and solvent (treated control group), solvent (polyethylene glycol 400-untreated control group), concanavalin and tested compound dissolved in the solvent (treated groups).
Rats are treated intravenously with concanavalin A (0.3 mg/rat), and after 5 minutes they receive by intraperitoneal injection the tested compounds, at the doses reported in Table 1, dissolved in polyethylenglycol 400.
Eight hours after the concanavalin A injection all the animals were sacrificed and the blood collected and examined. The data, reported in Table 1, are expressed as value of the plasmatic glutamic-pyruvic transaminase percentage of the animals treated with the tested compound with respect to the animals of the treated control group.

Structure (SMILES) | inhibition at 100 µM [2] [%] | inhibition at 10 µM [2] [%] | inhibition at 1 µM [2] [%] | inhibition at 100 µM [3] [%] | inhibition at 10 µM [3] [%] | inhibition at 1 µM [3] [%] | inhibition at 100 µM [5] [%] | inhibition at 10 µM [5] [%] | inhibition at 1 µM [5] [%] | inhibition at 100 µM [6] [%] | inhibition at 10 µM [6] [%] | inhibition at 1 µM [6] [%] | inhibition at 100 µM [7] [%] | inhibition at 10 µM [7] [%] | inhibition at 1 µM [7] [%] | inhibition at 100 µM [8] [%] | inhibition at 10 µM [8] [%] | inhibition at 1 µM [8] [%] | further results
CC(=O)Oc1ccccc1C(=O)Oc1ccc(CO[N+](=O)[O-])cc1 [Ex. 6, 2-(acetyloxy)benzoic Acid 4-(nitrooxymethyl)phenyl ester] | – | – | – | – | – | – | – | – | – | – | – | – | – | – | – | – | – | – | melting point: 86 to 88 °C; activity at 10 µM ([1]; HT-29, 10 μM): 0%
COc1cc(/C=C/C(=O)OCCCCO[N+](=O)[O-])ccc1OC(=O)c1ccccc1OC(C)=O [Ex. 7, trans-3-[4-[2-(acetyloxy)benzoyloxy]-3-methoxyphenyl]-2-propenoic acid 4-(nitrooxy)butyl ester] | 50 | 0 | 0 | 72 | 0 | 0 | 55 | 0 | 2 | 69 | 30 | 1 | 82 | 24 | 4 | 81 | 47 | 20 | activity in prostate tumours (in words) ([4]; 10^-5 concentrations, cellular lines LNCaP and PC3): active; activity at 300 µM ([1]; HT-29, 300 μM): 50%
CC1=C(CC(=O)OCCCCO[N+](=O)[O-])c2cc(F)ccc2/C1=C\c1ccc([S+](C)[O-])cc1 (stereo not shown) [Ex. 18] | 92 | 80 | 9 | 81 | 38 | 3 | 93 | 82 | 0 | 74 | 68 | 5 | 88 | 74 | 0 | 88 | 74 | 17 | inhibitory effect on the proliferation of all kinds of cancerous cells examined (in words) ([4]; 10^-5 M, all six prostate and bladder lines): strong inhibitory effect; activity at 50 µM ([1]; HT-29, 50 μM): 0%; response vs control in vivo at 200 mg/kg [9]: 18%
